How the values were obtained:
Format in all cases: binding
HLA B*5301 = HLA B*5301 (Homo sapiens, UniProt P01889, A329T/A93T/A95T/C349S/D201E/D98Y/E176V/E187L/E204Q/E69T/G107R/I218V/K202T/L105A/L119I/N104I/Q94N/R106L/R155S/R180L/S101N/S121R/S35A/S48A/T118I/V127L/V306I/V36M/Y140S/Y91F)
HLA B*1501 = HLA B*1501 (Homo sapiens, UniProt P01889, A329T/A93T/A95T/C349S/D201E/D98Y/E187L/E204Q/E69M/E70A/K202T/N87E/Q94N/R155S/R180W/S121R/S35A/S48A/V306I/V36M/Y140S/Y91S); test: biochemical
H-2 K^d = H-2 K^d (Mus musculus, UniProt P01902)
HLA A*3001 = HLA A*3001 (Homo sapiens, UniProt P04439, D140H/D185E/E176W/F33S/G80R/H175R/K168Q/R138E/R41S); test: biochemical
HLA B*0801 = HLA B*0801 (Homo sapiens, UniProt P01889, A93T/A95T/D138N/E176V/E187T/K202T/Q94N/R180D/S35A/V36M/Y33D/Y91F); test: biochemical
HLA A*3201 = HLA A*3201 (Homo sapiens, UniProt P04439, A270S/D101S/D185E/E176V/E277Q/F133L/G103R/G107R/G231S/H175R/I121M/I218V/I322F/K168Q/L105A/L300P/L318F/M331R/P208A/P217A/Q94H/R106L/R138Q/S129P/T104I/T323A/T345S/V100E/V321M/V358M); test: biochemical
HLA B*5802 = HLA B*5802 (Homo sapiens, UniProt P01889, A329T/C349S/D201E/D98Y/E176V/E187L/E204Q/E69T/G107R/I218V/I90N/K202T/L105A/N104I/N87E/Q89R/Q94S/R106L/R155S/R180L/R86G/S101N/S121W/S35A/S48A/V127L/V306I/V36M/Y140S/Y91M)
HLA B*3501 = HLA B*3501 (Homo sapiens, UniProt P01889, A329T/A93T/A95T/C349S/D201E/D98Y/E176V/E187L/E204Q/E69T/I218V/K202T/L119I/Q94N/R155S/R180L/S121R/S35A/S48A/T118I/V127L/V306I/V36M/Y140S/Y91F)
HLA B*5101 = HLA B*5101 (Homo sapiens, UniProt P01889, A329T/A93T/A95T/C349S/D138N/D201E/D98Y/E187L/E204Q/E69T/G107R/I218V/K202T/L105A/L119W/N104I/Q94N/R106L/R155S/R180L/S101N/S121T/S35A/S48A/V306I/V36M/Y195H/Y91F)
H-2 D^b = H-2 D^b (Mus musculus, UniProt P01899)
HLA B*5401 = HLA B*5401 (Homo sapiens, UniProt P01889, A329T/C349S/D138N/D201E/E176V/E187T/E204Q/E69G/I76V/K202T/L119W/R155S/R180L/S121T/S35A/S48A/V127L/V306I/V36M/Y140L)
HLA B*5801 = HLA B*5801 (Homo sapiens, UniProt P01889, A329T/C349S/D201E/D98Y/E176V/E187L/E204Q/E69T/G107R/I218V/I90N/K202T/L105A/L119I/N104I/N87E/Q89R/Q94S/R106L/R155S/R180L/R86G/S101N/S121R/S35A/S48A/T118I/V127L/V306I/V36M/Y140S/Y91M)
HLA A*6802 = HLA A*6802 (Homo sapiens, UniProt P04439, A269V/D140Y/D185E/E176V/E277Q/E87N/F33Y/G231S/I121R/I166T/I218V/L180W/L300P/L318F/N151K/P208A/P217A/Q86R/R138H/R169H/S129P/T345S/V36M)
H-2 D^d = H-2 D^d (Mus musculus, UniProt P01900)
HLA B*1503 = HLA B*1503 (Homo sapiens, UniProt P01889, A329T/A93T/A95T/C349S/D201E/D98Y/E187L/E204Q/K202T/N87E/Q94N/R155S/R180L/S121R/S35A/V306I/V36M/Y140S/Y91S); test: biochemical
H-2 K^k = H-2 K^k (Mus musculus, UniProt P04223)
Chain of H-2 K^k (P01887 21-119): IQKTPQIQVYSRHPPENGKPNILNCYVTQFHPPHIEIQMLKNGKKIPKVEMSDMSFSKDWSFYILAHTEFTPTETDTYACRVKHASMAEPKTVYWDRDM
Chain of H-2 K^k (P04223 22-369): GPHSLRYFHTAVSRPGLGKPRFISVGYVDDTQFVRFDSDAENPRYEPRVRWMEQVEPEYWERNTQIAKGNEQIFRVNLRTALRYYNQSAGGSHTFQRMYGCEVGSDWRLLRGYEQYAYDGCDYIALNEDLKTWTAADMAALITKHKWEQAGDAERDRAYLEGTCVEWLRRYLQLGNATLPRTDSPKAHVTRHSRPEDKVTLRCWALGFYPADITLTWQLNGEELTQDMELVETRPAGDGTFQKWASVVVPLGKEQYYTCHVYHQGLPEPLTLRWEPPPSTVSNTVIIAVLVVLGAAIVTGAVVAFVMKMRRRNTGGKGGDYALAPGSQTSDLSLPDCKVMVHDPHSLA

Chain of H-2 D^d (P01900 whole entry, looked up): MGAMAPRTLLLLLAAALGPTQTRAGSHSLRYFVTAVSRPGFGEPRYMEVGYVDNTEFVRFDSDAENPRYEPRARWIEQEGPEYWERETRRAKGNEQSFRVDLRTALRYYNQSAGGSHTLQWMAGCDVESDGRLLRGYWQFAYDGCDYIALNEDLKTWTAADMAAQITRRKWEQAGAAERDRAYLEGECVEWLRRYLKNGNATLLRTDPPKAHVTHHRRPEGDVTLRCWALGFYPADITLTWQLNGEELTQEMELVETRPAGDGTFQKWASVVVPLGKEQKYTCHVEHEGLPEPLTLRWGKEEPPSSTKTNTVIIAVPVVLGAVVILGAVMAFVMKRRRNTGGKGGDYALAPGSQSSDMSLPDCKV
Chain of H-2 D^b (P01887 21-119): as the sequence (P01887 21-119) above
Chain of H-2 D^b (P01899 25-362): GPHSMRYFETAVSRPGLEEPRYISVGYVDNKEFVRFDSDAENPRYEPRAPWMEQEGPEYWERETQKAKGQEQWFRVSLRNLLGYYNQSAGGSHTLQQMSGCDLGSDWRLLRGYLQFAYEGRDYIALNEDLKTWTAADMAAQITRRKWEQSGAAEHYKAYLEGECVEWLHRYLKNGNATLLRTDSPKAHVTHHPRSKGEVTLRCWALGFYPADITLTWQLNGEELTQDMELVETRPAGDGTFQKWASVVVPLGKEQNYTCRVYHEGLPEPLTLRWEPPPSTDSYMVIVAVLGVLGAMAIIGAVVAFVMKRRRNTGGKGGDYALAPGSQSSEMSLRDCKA
Chain of H-2 K^d (P01887 21-119): as the sequence (P01887 21-119) above
Chain of H-2 K^d (P01902 22-368): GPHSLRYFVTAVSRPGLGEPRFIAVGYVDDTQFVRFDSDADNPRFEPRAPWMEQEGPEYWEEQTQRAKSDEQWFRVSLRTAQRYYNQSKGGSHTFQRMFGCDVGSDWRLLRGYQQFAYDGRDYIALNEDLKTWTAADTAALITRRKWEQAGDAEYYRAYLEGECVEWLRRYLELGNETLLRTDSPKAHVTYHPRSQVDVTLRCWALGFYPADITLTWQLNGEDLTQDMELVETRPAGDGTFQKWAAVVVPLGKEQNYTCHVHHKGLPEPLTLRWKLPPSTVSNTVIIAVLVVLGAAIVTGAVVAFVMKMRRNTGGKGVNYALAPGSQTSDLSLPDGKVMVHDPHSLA

Sequence	Normalized average relative binding affinity(ARB) (HLA B*5301)	Normalized average relative binding affinity(ARB) (HLA B*1501)	Normalized average relative binding affinity(ARB) (H-2 K^d)	Normalized average relative binding affinity(ARB) (HLA A*3001)	Normalized average relative binding affinity(ARB) (HLA B*0801)	Normalized average relative binding affinity(ARB) (HLA A*3201)	Normalized average relative binding affinity(ARB) (HLA B*5802)	Normalized average relative binding affinity(ARB) (HLA B*3501)	Normalized average relative binding affinity(ARB) (HLA B*5101)	Normalized average relative binding affinity(ARB) (H-2 D^b)	Normalized average relative binding affinity(ARB) (HLA B*5401)	Normalized average relative binding affinity(ARB) (HLA B*5801)	Normalized average relative binding affinity(ARB) (HLA A*6802)	Normalized average relative binding affinity(ARB) (H-2 D^d)	Normalized average relative binding affinity(ARB) (HLA B*1503)	Normalized average relative binding affinity(ARB) (H-2 K^k)
XXXXXSXXX [3064.0116]	0.17	0.35	0.25	0.44	0.052	0.80	0.055	0.33	0.32	0.70	0.18	0.45	0.57	0.63	0.51	0.70
XXXXXXMXX [3064.0131]	0.15	0.54	0.080	0.32	0.62	0.10	0.35	0.13	0.68	0.24	0.065	0.30	0.51	0.024	0.18	0.064
XXXXTXXXX [3064.0097]	0.11	0.62	0.42	0.18	0.011	0.062	0.16	0.21	0.51	0.018	0.085	0.33	0.044	0.18	0.43	0.16
XXXXXXTXX [3064.0137]	0.081	0.49	1.0	0.11	0.46	0.14	0.057	0.27	0.58	0.67	0.33	0.28	0.60	0.029	0.16	0.061
